Results taken from patent US4080471A, “Use of substituted isopropylaminopropanols for inducing inotropic effects of the human heart” (priority 1976, dated 1978).
Entries after “also recorded” stand apart in the source; their conditions may differ.

Experiments:
[1] = target: T1, beta-receptors of the blood vessels (Felis catus, UniProt Q9TST5); experiment: Vasodilatating effect (hind limb perfusion pressure) on anesthetized cat pretreated with reserpine; format: in vivo; details: cat, iv, read-out: ED50 Vasodilation
T1 construct: from tissue; host or cells: hind-limb vascular bed of the anaesthetized cat in vivo (constant-flow perfusion, reserpine-pretreated)
Experimental: (§1) Chronotropic (heart frequency) and vasodilatating effects:
(§2) When the cats had been anaesthetized with Mebumal® 30 mg/kg bodyweight i.p., an artificial air respiration was started. The two vagus nerves were cut and the blood passing through a femoral artery was fed via a catheter and a pump back to the distal part of the vessel. Parallelly, a pressure transducer was connected by which the perfusion pressure was registered. At a perfusion with a constant flow, the perfusion pressure is directly proportional to the peripheral resistance of the vascular bed of the hind limb. Blood circulation in the foot was interrupted with a ligature. Heart frequency was registered with a cardiotachometer triggered by the ECG. The substances were administered intravenously in increasing doses and the dose-response curves of the heart frequency and the vasodilatation were constructed.
(§3) Further, the dose ratios (ED50 for vasodilatation/ED50 for heart frequency) are calculated. A dose ratio >1 indicates a heart selective effect.

[2] = target: T2, beta-receptors of the heart (Felis catus, UniProt Q9TST6); experiment: Heart frequency increase before and after beta-blockade with Inderal; format: in vivo, cat; details: 0.01 mg/kg bodyweight i.v.
T2 construct: Heart frequency was registered with a cardiotachometer triggered by the ECG; from tissue; host or cells: heart of the anaesthetized cat in vivo (reserpine-pretreated, vagotomized)
Experimental: as §2

[3] = test system: heart; experiment: Repetitive ventricular response (RVR) / spontaneous arrhythmia in the anesthetized dog; format: in vivo
Excerpt: (§4) Effects of Compound I and Ouabain On the Heart Contractility and Rhythmicity of the Anesthetized Dog
(§5) The object of the test was to compare compound I and oubain administered alone and in combination with each other to study the inotropic effect (maximum dP/dt in the left ventricle) and a possibly arrhythmic effect. The latter included an investigation of the ability of the compounds to cause repetitive ventricular response (RVR) when the heart was electrically stimulated via an electrode on the ventricle at the electrically vulnerable phase at the end of the T-wave. Klein et al. (M. Klein, N. S. Nejad, B. Lown, F. Hagemeijer and I. Blair, Circulation Research, 29, 635 (1971)) have shown that digitalis caused RVR at a dose which was about 70% of the dose giving spontaneous ventricular arrhythmias.
(§6) The dog was anesthetized with Mebumal® 30 mg/kg bodyweight i.v. Artificial respiration was applied. The sinus-node was electrocoagulated and the heart frequency was kept constant at 180 beats/minute in each test by electrical pacing of the auricle. Mean arterial blood pressure was registered from the carotis artery. ECG was registered during the test. Further, the pressure in the left ventricle was registered via a catheter inserted through the apex and connected to a pressure transducer. The intraventricular pressure curve was derivated to obtain maximum dP/dt which is a measure of the contractile force of the heart.
(§7) The test was started with a series of control registrations, whereupon the compounds were administered 3 times by infusion during five minutes and with an interval of 50 minutes between each infusion.
(§8) In the experiment with compound I only, the compound was administered in two doses of 10 μg/kg bodyweight and then one dose of 20 μg/kg bodyweight. Ouabain was given in 3 consecutive doses of 20 μg/kg bodyweight. In the combination test ouabain was first given in a dose of 20 μg/kg bodyweight followed by two doses of compound I of 10 and 20 μg/kg bodyweight, respectively.

[4] = test system: cardiac beta-receptors; experiment: Chronotropic (heart frequency) and inotropic (maximum dP/dt) effects in reserpinized, anesthetized, vagotomized cat; format: in vivo
Experimental: Chronotropic (Heart Frequency) and Inotropic (Contractile Force) Effects
The mean blood pressure was regulated with an adjustable clamp around the descending aorta. All registrations were than able to be done at a constant pressure in aorta (afterload). The compounds were administered by infusion intravenously in increasing doses. The dose-response curves as regards the heart frequency and maximum dP/dt were constructed, from which the ED50 -values were estimated.
Maximum dP/dt is a measure of the contractile force of the heart, i.e. inotropy, but is influenced by changes in the heart frequency, filling pressure (preload) and aortic blood pressure (afterload). In this test, a comparison between inotropic and chronotropic effects can be done at the same heart frequency. Further, the aortic blood pressure is kept constant.

[5] = test system: heart; experiment: Effect on heart contractility (maximum dP/dt) of the anesthetized dog; format: in vivo
Excerpt: as §4, §5, §6, §7, §8

[6] = test system: heart; experiment: Effect on heart chronotropy and inotropy of a conscious dog
Excerpt: During anesthesia a catheter was introduced in the aorta, an electromagnetic flow probe was placed around the ascending aorta, and induction coils were placed diametrically on the inside of the left ventricle. The experiments were started about 2 weeks after the incision, when the dog had recovered completely.
When the dog was resting, the arterial blood pressure, the flow in the aorta, the maximum flow acceleration in the aorta (maximum dF/dt), heart frequency, the diameter of the left ventricle, and ECG were registered. The effects of compounds I and II were registered at 10, 20, and 30 minutes after administration. […] The compounds were given intravenously in the following doses. […] In order to eliminate vagal influence on the heart the dog was pretreated with methyl scopolamine 0.012 mg/kg bodyweight intramuscularily 20 minutes before the administration of the compounds. From the data giving the diameter of the left ventricle, the end diastolic volume was calculated according to E. W. Hawthorne. Mean ejection rate (ml/sec.) was calculated by dividing the stroke volume with the ejection time. […] The values given are the percentage changes after administration when the heart frequency has increased 10 beats per minute, values interpolated. […] In order to compare the inotropic effects of ouabain with those of the other compounds, the heart was stimulated in these experiments by electric pacing to a frequency which was 10 beats/minute above that registered before administration.
In order to investigate the absorption and duration of the effect, compounds I and II were given orally in an amount of 100 μg/kg bodyweight.

[7] = test system: beta-receptors of the heart; experiment: Beta-adrenergic (chronotropic, heart frequency) effects on anesthetized cat pretreated with reserpine; format: in vivo; details: dose ratio >1 indicates a heart selective effect
Experimental: as §1, §2, §3

[8] = target: T2, beta-receptors of the heart; experiment: as above; format: in vivo
Experimental: as §1, §2, §3

[9] = 20 minutes after administration, ouabain versus compound I
[10] = anesthetized dog, i.v. infusion
[11] = change i.v. at heart frequency +10 beats/min, interpolated, ouabain 30 μg/kg i.v., paced

T2 sequence (Q9TST6 whole entry): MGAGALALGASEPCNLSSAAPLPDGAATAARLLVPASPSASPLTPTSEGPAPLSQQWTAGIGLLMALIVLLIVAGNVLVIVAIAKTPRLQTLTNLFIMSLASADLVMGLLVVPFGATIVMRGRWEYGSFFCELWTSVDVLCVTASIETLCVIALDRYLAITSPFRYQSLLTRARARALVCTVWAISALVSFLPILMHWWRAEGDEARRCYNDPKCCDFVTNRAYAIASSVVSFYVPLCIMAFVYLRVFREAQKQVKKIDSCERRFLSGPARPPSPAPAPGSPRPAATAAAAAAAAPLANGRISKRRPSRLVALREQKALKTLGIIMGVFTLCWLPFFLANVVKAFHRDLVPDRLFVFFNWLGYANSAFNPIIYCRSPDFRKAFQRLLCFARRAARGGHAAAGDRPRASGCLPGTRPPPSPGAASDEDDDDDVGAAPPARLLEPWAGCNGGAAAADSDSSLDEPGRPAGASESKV
T1 sequence (Q9TST5 whole entry, the tested form may be a part): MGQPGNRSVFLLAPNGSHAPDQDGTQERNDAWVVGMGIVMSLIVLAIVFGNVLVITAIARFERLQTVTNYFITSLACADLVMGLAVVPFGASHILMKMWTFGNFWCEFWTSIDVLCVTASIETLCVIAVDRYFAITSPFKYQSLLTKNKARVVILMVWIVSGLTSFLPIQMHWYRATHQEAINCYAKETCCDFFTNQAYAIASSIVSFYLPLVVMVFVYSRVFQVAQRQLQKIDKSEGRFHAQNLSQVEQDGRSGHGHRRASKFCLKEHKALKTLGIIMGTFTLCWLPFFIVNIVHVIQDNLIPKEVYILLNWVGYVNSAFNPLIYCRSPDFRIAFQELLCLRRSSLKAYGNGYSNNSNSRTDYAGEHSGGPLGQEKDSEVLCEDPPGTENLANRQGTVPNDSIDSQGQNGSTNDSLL

Compound: CC(C)NCC(O)COc1ccc(O)cc1 (stereo not shown) [Compound I, 1-isopropylamino-3-(p-hydroxyphenoxy)-propanol-2]
- ED50 [1]: > 1 mg/kg
- increase of heart frequency, given after Inderal ([2]; after 0.2 mg/kg i.v. Inderal): 10 beats/minute
- increase of heart frequency, given before Inderal ([2]; before Inderal, average): 60 beats/minute
- RVR or spontaneous arrhythmia (in words) ([3]; compound I 10 and 20 μg/kg bodyweight): did not in any case cause RVR or spontaneous arrhythmia
- arrhythmogenic effect in relation to inotropic effect, versus ouabain (in words) ([3]; dog, in vivo): evidently less arrhythmogenic effect than ouabain
- auricle pressure (filling pressure) ([4]; cat, i.v. infusion): decreased
- affinity to cardiac beta-receptors giving inotropic versus chronotropic effects (in words) ([4]; in vivo): higher affinity to cardiac beta-receptors, which give inotropic effects, than to beta-receptors in the sinus-node region, which give chronotropic effects
- increase of aortic blood pressure ([5]; 20 minutes after administration): no effect
- doses giving approximately the same level of maximum dP/dt (lower pair) [5, 9]: about 10 μg/kg bodyweight
- doses giving corresponding effect on maximum dP/dt (higher pair) [5, 9]: 20 μg/kg bodyweight
- effect on maximum dP/dt (in words) [5, 10]: increased the maximum dP/dt
- onset of effect on maximum dP/dt [5, 10]: immediate
- reduction of effect on maximum dP/dt after 50 minutes [5, 10]: almost completely reduced after 50 minutes
- ventricular contractility compared with ouabain (in words) ([5]; at same increase of maximum dP/dt): increased the ventricular contractility a little more than ouabain
- time of maximum effect, oral ([6]; 100 μg/kg bodyweight orally): 30 min
- Enddiastolic volume ([6]; change i.v. at heart frequency +10 beats/min, interpolated, calculated from left ventricle diameter, ouabain 30 μg/kg i.v., paced): -9%
- Stroke volume ([6]; change i.v. at heart frequency +10 beats/min, interpolated, methyl scopolamine pretreated, ouabain 30 μg/kg i.v., paced): 5%
- Mean arterial blood pressure [6, 11]: 0 mm Hg
- Peak aortic flow [6, 11]: 22%
- Mean ejection rate ([6]; change i.v. at heart frequency +10 beats/min, interpolated, stroke volume / ejection time, ouabain 30 μg/kg i.v., paced): 13%
- side effects ([6]; conscious dog, I and II 10 and 20 μg/kg, ouabain 30 μg/kg i.v.): No side effect was observed
- contractility / inotropic effect in conscious dog (in words) ([6]; i.v.): clear inotropic effect without any significant increase of the heart frequency; also recorded: increases the contractility of the left ventricle
- Max. dF/dt ([6]; maximum flow acceleration in aorta, change i.v. at heart frequency +10 beats/min, interpolated, ouabain 30 μg/kg i.v., paced): 43%
- oral effect (in words) ([6]; oral, 100 μg/kg bodyweight): good inotropic effect when administered perorally and an acceptable duration of action; also recorded: comparable with those obtained after intravenous administration of 20 μg/kg bodyweight
- positive inotropic effect compared with ouabain (in words) ([6]; versus relatively high dose of ouabain): quite comparable to the effect of a high dose of ouabain; also recorded: comparable to the effect of the relatively high dose of ouabain
- Selectivity: ED50 Vasodilatation / ED50 Heart Frequency [7]: > 100
- ED50 ([8]; cat, iv, read-out: ED50 Heart Frequency): 6 µg/kg
- potency relative to isoprenaline, chronotropic effect ([8]; isoprenaline = 1, cat i.v.): about 1/100
